According to patent publication US7371780B2, “Use of calphostin C to treat drug-resistant tumor cells” (priority 2003, dated 2008):

What was measured:
[1] = system: MCF-7DOX (doxorubicin-resistant) cells; assay: Clonogenic assay, MCF-7DOX cells; type: cell-based, human
Protocol: The breast cancer cell line MCF-7 (lot HTB-22) was obtained from the American […] (ATCC) and maintained in Dulbecco's H21 medium (MEM) supplemented with 10% Fetal Bovine Serum (FBS) (HyClone, Logan, Utah) in a humidified atmosphere containing 5% CO2 at 37° C. To establish drug resistant cell lines, MCF-7 cells were grown in the presence of either paclitaxel or doxorubicin, beginning at a concentration 1000-fold below that required to kill 50% of the cells (the IC50). The drug concentration was increased 3-fold every two weeks (two passages), with an aliquot of the cells removed for storage in liquid nitrogen before each increase in concentration. Dose escalation continued until all cells died, after which the cells able to tolerate the highest concentration of drug were thawed for subsequent study. In this way, paclitaxel-resistant (MCF-7TAX) and doxorubicin-resistant (MCF-7DOX) cell lines were established. The IC50 for each drug was determined using a clonogenic assay as outlined below. The drug resistant cells were kept in culture in the presence of the maximally tolerated drug dose. Before each experiment, the cell lines were grown for two days in the absence of drug after which fresh medium containing either calphostin C (Sigma Laboratories, Oakville, ON), doxorubicin (Adriamycin PFS®, USP, Mississauga, ON) or paclitaxel (Taxol, Bristol-Myers Squibb, Montreal, QC) was added at the concentrations indicated.
The sensitivity of MCF-7, MCF-7TAX and MCF-7DOX cells to calphostin C, paclitaxel or doxorubicin was determined using a clonogenic assay. Briefly, 2.5×10^5 cells were seeded into 25 cm^2 tissue culture flasks in Dulbecco's H21 medium supplemented with 10% FBS. The cells were allowed to grow overnight, after which the medium was removed and replaced with medium containing varying concentrations of paclitaxel, doxorubicin, or calphostin C (after 2 hours of light exposure to activate the molecule). After 24 hours, the medium (including any floating cells) was transferred to 14 ml screw-capped tubes and centrifuged at 1000 rpm for 10 min. The adherent cells were then released from their flasks by trypsin treatment and suspended in 10 ml of H21 medium. The cell suspension was transferred to the previous tube and all cells harvested by centrifugation. The cell pellet was washed one more time with drug-free medium and resuspended in 300 μl of normal growth medium containing FBS. The cells were then added to 2.7 ml of a methylcellulose solution. The methylcellulose medium was prepared by combining 70 ml of a 2.6% (w/v) methylcellulose solution [Shin-Etsu Chemical Co., Tokyo, Japan] in Iscove's medium (Princess Margaret Hospital, Toronto, ON) with 30 ml of FBS. Three ml syringes equipped with a 16-gauge needle were used for transferring the viscous medium. The mixture was vigorously vortexed for 10 s to ensure an even distribution of cells within the viscous medium. The vortexed samples were then allowed to sit for 30 min to remove air bubbles. A 1.2 ml aliquot of the cell suspension was then transferred to a 6-well plate and the cells allowed to grow until colonies of >50 cells were visible by light microscopy for the various cell lines in the absence of drug. The colonies present in 5 randomly selected fields were then counted by visual inspection.
Calphostin C (Sigma Laboratories, Oakville, ON) was prepared as a 100 μM stock solution in dimethylsulfoxide (Sigma Laboratories, Oakville, ON) and stored at −70° C. in 100 μl aliquots. […]

[2] = system: MCF-7DOX cells; assay: Flow cytometric sub-G1 DNA content, MCF-7DOX; type: cell-based, human; settings: 100 nM calphostin C
Protocol: For flow cytometric analysis, cells at about 50% to 60% confluence were released from their flasks by trypsin treatment and washed with PBS. After centrifugation at 1000 rpm for 5 min, cells were then fixed by resuspension in 75% ethanol for 2 hours, collected by centrifugation, and resuspended in PI staining solution (see above) for 1 h. For each sample, approximately 2×10^4 cells were analyzed using a Beckman Coulter Epics® Elite flow cytometer. Fluorescence intensity upon stimulation with an argon-ion laser at 488 nm was measured using the PMT4 channel (625DL filter) and plotted against cell number. The percentage of cells with a sub-G1 DNA content was determined by the flow cytometer, adjusting the gates such that only cells with a fluorescence lower than the peak for untreated cells in G1 are counted (see FIG. 4).

[3] = system: MCF-7TAX cells; assay: Drug uptake, MCF-7TAX; type: cell-based, human
Protocol: FIG. 5 illustrates the effect of calphostin C (Cal-C) on drug uptake in MCF-7 (square symbols), MCF-7TAX (diamond symbols) and MCF-7DOX (triangular symbols) cells. After one-day growth, the cells were left untreated (closed symbols) or treated with 100 nM calphostin C for 2 h with light activation (open symbols). Cells were then washed and the medium replaced with medium containing 2 μM of doxorubicin (A) or [^3H]-paclitaxel (B). The cells were then trypsinized and drug accumulation measured by flow cytometry (A) or liquid scintillation counting (B) at indicated time points. The figures are representative of three independent experiments.

[4] = mice, cited from earlier work

COc1c(C[C@@H](C)OC(=O)Oc2ccc(O)cc2)c2c3c(C[C@@H](C)OC(=O)c4ccccc4)c(OC)c(=O)c4c(O)cc(OC)c(c5c(OC)cc(O)c(c1=O)c52)c43 [calphostin C]
IC50 ([1]; MCF-7DOX cells, 24 h drug, calphostin C light-activated 2 h): 64.2 nM
fold resistance / lower sensitivity compared to MCF-7 cells ([1]; MCF-7DOX vs MCF-7): approximately 5 fold
time of strong increase in percentage of sub-G1 cells after treatment ([2]; MCF-7ADR (so in the source), 2 h light): 8 h
percentage of cells with sub-G1 DNA content versus similarly treated MCF-7 or MCF-7TAX cells ([2]; MCF-7DOX): significantly lower
effect on doxorubicin uptake ([3]; 100 nM calphostin C 2 h with light, then 2 μM doxorubicin): little ability to re-establish doxorubicin uptake
effect on paclitaxel uptake ([3]; 100 nM calphostin C, early time points, back to control by 18 hours): slightly restored
clearance rate t1/2 ([4]; 40 mg/kg): 1.52 h
plasma concentration reached without significant cytotoxicity [4]: 2900 nM
